Experimental data reported in ChEMBL document CHEMBL5321233, “Biological activity of 1,2,3-triazole-2-amino-1,4-naphthoquinone derivatives and their evaluation as therapeutic strategy for malaria control” (Eur J Med Chem, 2023).
Active and inactive are the calls of the source. The calls are words filed in the database; no cut-off is given here.

What was measured:
[1] = Cytotoxicity against African green monkey Vero cells incubated for 24 hrs by MTT assay; format: toxicity, cell-based; settings: chlorocebus sabaeus
[2] = Acute toxicity in Albino Swiss mouse assessed as signs of pallor at 300 mg/kg, po administered as single dose measured after 14 days; format: organism-based; settings: in vivo, 336 h, time 14 day
[3] = Acute toxicity in Albino Swiss mouse assessed as pathological lesions in liver at 300 mg/kg, po administered as single dose measured after 14 days by H and E staining based analysis; format: organism-based; settings: in vivo, 336 h, time 14 day
[4] = Acute toxicity in Albino Swiss mouse assessed as signs of toxicity at 300 mg/kg, po administered as single dose measured after 14 days; format: organism-based; settings: in vivo, 336 h, time 14 day
Plasmodium berghei [5] = test: Antimalarial activity against Plasmodium berghei ANKA infected in Albino Swiss mouse assessed as half-survival time at 30 mg/kg, po administered for 4 consecutive days measured for 30 days (reference value: 16 day); format: functional; settings: time 30 day
[6] = Acute toxicity in Albino Swiss mouse assessed as change in relative weight of liver at 300 mg/kg, po administered as single dose measured after 14 days; format: organism-based; settings: in vivo, 336 h, time 14 day
[7] = Octanol-water partition coefficient, logP of the compound; format: physicochemical
Plasmodium falciparum [8] = test: Induction of morphological changes in chloroquine-resistant Plasmodium falciparum W2 trophozoites assessed as dense cytoplasm with undefined organelles by TEM analysis; format: functional, organism-based
[9] = Acute toxicity in Albino Swiss mouse assessed as aggressiveness at 300 mg/kg, po administered as single dose measured after 14 days; format: organism-based; settings: in vivo, 336 h, time 14 day
HepG2 = test: Cytotoxicity against human HepG2 cells incubated for 24 hrs by MTT assay; format: functional
[10] = Hemolytic activity in human red blood cells assessed as hemoglobin release at 250 to 15.6 uM incubated for 60 mins by spectrophotometry; format: toxicity, cell-based, Erythrocyte; settings: dose 250-15.6 µM, read-out: Activity
[11] = Acute toxicity in Albino Swiss mouse assessed as change in defecation at 300 mg/kg, po administered as single dose measured after 14 days; format: organism-based; settings: in vivo, 336 h, time 14 day
Plasmodium falciparum [12] = test: Antimalarial activity against chloroquine-resistant Plasmodium falciparum W2 infected in human erythrocytes assessed as parasite growth inhibition incubated for 48 hrs by geimsa staining based microscopy; format: functional, organism-based; settings: W2, Erythrocyte
[13] = Hemolytic activity in human red blood cells type A assessed as hemoglobin release at 500 to 1000 uM incubated for 60 mins by spectrophotometry; format: toxicity, cell-based, Erythrocyte; settings: dose 500-1000 µM, read-out: Activity
[14] = Selectivity index, ratio of CC50 for African green monkey Vero cells to IC50 for chloroquine-resistant Plasmodium falciparum W2 infected in human erythrocytes; format: toxicity, cell-based; settings: read-out: Ratio CC50/IC50
Plasmodium falciparum [15] = test: Induction of morphological changes in chloroquine-resistant Plasmodium falciparum W2 trophozoites assessed as deteriorated food vacuole by TEM analysis; format: functional, organism-based
[16] = Acute toxicity in Albino Swiss mouse assessed as change in relative weight of kidney at 300 mg/kg, po administered as single dose measured after 14 days; format: organism-based; settings: in vivo, 336 h, time 14 day
[17] = Acute toxicity in Albino Swiss mouse assessed as contortions at 300 mg/kg, po administered as single dose measured after 14 days; format: organism-based; settings: in vivo, 336 h, time 14 day
[18] = Acute toxicity in Albino Swiss mouse assessed as pathological damage in spleen at 300 mg/kg, po administered as single dose measured after 14 days by H and E staining based analysis; format: organism-based; settings: in vivo, 336 h, time 14 day
[19] = Acute toxicity in Albino Swiss mouse assessed as signs of cyanosis at 300 mg/kg, po administered as single dose measured after 14 days; format: organism-based; settings: in vivo, 336 h, time 14 day
[20] = Acute toxicity in Albino Swiss mouse assessed as change in urine color at 300 mg/kg, po administered as single dose measured after 14 days; format: organism-based; settings: in vivo, 336 h, time 14 day
Plasmodium falciparum [21] = test: Induction of morphological changes in chloroquine-resistant Plasmodium falciparum W2 trophozoites assessed as degraded cytoplasm by TEM analysis relative to control; format: functional
Plasmodium berghei [22] = test: Antimalarial activity against Plasmodium berghei ANKA infected in Albino Swiss mouse assessed as reduction in parasitemia at 30 mg/kg, po administered for 4 consecutive days measured after day 7 relative to control; format: functional; set-up: scale not given: the % may be the effect or the level left; settings: time 7 day
[23] = Acute toxicity in Albino Swiss mouse assessed as change in motor function at 300 mg/kg, po administered as single dose measured after 14 days; format: organism-based; settings: in vivo, 336 h, time 14 day
[24] = Acute toxicity in Albino Swiss mouse assessed as change in relative weight of spleen at 300 mg/kg, po administered as single dose measured after 14 days; format: organism-based; settings: in vivo, 336 h, time 14 day
[25] = Selectivity index, ratio of CC50 for human HepG2 cells to IC50 for chloroquine-resistant Plasmodium falciparum W2 infected in human erythrocytes; format: toxicity, cell-based; settings: read-out: Ratio CC50/IC50
[26] = Acute toxicity in Albino Swiss mouse assessed as change in diarrhea at 300 mg/kg, po administered as single dose measured after 14 days; format: organism-based; settings: in vivo, 336 h, time 14 day
[27] = Acute toxicity in Albino Swiss mouse assessed as escape reaction at 300 mg/kg, po administered as single dose measured after 14 days; format: organism-based; settings: in vivo, 336 h, time 14 day
[28] = Toxicity in Albino Swiss mouse infected with Plasmodium berghei ANKA assessed as mortality rate at 30 mg/kg, po administered for 4 consecutive days measured for 14 days relative to control; format: organism-based; settings: in vivo, time 14 day, read-out: Activity
[29] = Acute toxicity in Albino Swiss mouse assessed as pathological changes in kidney at 300 mg/kg, po administered as single dose measured after 14 days by H and E staining based analysis; format: organism-based; settings: in vivo, 336 h, time 14 day
[30] = Acute toxicity in Albino Swiss mouse assessed as signs of hyperemia at 300 mg/kg, po administered as single dose measured after 14 days; format: organism-based; settings: in vivo, 336 h, time 14 day
[31] = Acute toxicity in Albino Swiss mouse assessed as macroscopic alterations in liver at 300 mg/kg, po administered as single dose measured after 14 days by H and E staining based analysis; format: organism-based; settings: in vivo, 336 h, time 14 day
[32] = Acute toxicity in Albino Swiss mouse assessed as change in sensory function at 300 mg/kg, po administered as single dose measured after 14 days; format: organism-based; settings: in vivo, 336 h, time 14 day
[33] = Acute toxicity in Albino Swiss mouse assessed as change in urination volume at 300 mg/kg, po administered as single dose measured after 14 days; format: organism-based; settings: in vivo, 336 h, time 14 day
Plasmodium falciparum [34] = test: Induction of morphological changes in chloroquine-resistant Plasmodium falciparum W2 trophozoites assessed as loss of membrane integrity by TEM analysis; format: functional, organism-based
[35] = Acute toxicity in Albino Swiss mouse assessed as animal mortality at 300 mg/kg, po administered as single dose measured after 14 days; format: organism-based; settings: in vivo, 336 h, time 14 day
[36] = Acute toxicity in Albino Swiss mouse assessed as behavioural toxicity at 300 mg/kg, po administered as single dose measured after 14 days; format: organism-based; settings: in vivo, 336 h, time 14 day

COc1ccc(-c2cn(CCNC3=CC(=O)c4ccccc4C3=O)nn2)cc1
CC50 at 24 h [1]: 401 µM | Activity [2]: Non-Toxic | Activity [3]: Toxic | Activity [4]: Non-Toxic | Survival (Plasmodium berghei [5]): 26 days | Activity [6]: Non-Toxic | logP [7]: 2.72 | Activity (Plasmodium falciparum [8]): Active | Activity [9]: Non-Toxic | CC50 (HepG2): 289 µM | hemolysis at 1 h [10]: < 40% | Activity [11]: Non-Toxic | IC50 (Plasmodium falciparum [12]): 4.2 µM | hemolysis at 1 h, up to 1000 µM [13]: > 40% | selectivity ratio [14]: 95.8 | Activity (Plasmodium falciparum [15]): Active | Activity [16]: Non-Toxic | Activity [17]: Non-Toxic | Activity [18]: Non-Toxic | Activity [19]: Non-Toxic | Activity [20]: Non-Toxic | Activity (Plasmodium falciparum [21]): 100% | Activity (Plasmodium berghei [22]): 33% | Activity [23]: Non-Toxic | Activity [24]: Non-Toxic | selectivity ratio [25]: 68.8 | Activity [26]: Non-Toxic | Activity [27]: Non-Toxic | mortality at 336 h [28]: 20% | Activity [29]: Non-Toxic | Activity [30]: Non-Toxic | Activity [31]: Non-Toxic | Activity [32]: Non-Toxic | Activity [33]: Non-Toxic | Activity (Plasmodium falciparum [34]): Active | Activity [35]: Non-Toxic | Activity [36]: Non-Toxic

CC(C)(O)c1cn(CCNC2=CC(=O)c3ccccc3C2=O)nn1
CC50 at 24 h [1]: 188 µM | Activity [2]: Non-Toxic | Activity [4]: Non-Toxic | Survival (Plasmodium berghei [5]): 14 days | Activity [6]: Non-Toxic | logP [7]: 1.38 | Activity [9]: Non-Toxic | CC50 (HepG2): 233 µM | hemolysis at 1 h [10]: < 40% | Activity [11]: Non-Toxic | IC50 (Plasmodium falciparum [12]): 6.6 µM | hemolysis at 1 h, up to 1000 µM [13]: > 40% | selectivity ratio [14]: 28.5 | Activity [16]: Non-Toxic | Activity [17]: Non-Toxic | Activity [19]: Non-Toxic | Activity [20]: Non-Toxic | Activity [23]: Non-Toxic | Activity [24]: Non-Toxic | selectivity ratio [25]: 35.3 | Activity [26]: Non-Toxic | Activity [27]: Non-Toxic | Activity [30]: Non-Toxic | Activity [32]: Non-Toxic | Activity [33]: Non-Toxic | Activity [35]: Non-Toxic | Activity [36]: Non-Toxic

O=C1C=C(NCCn2cc(-c3ccccc3)nn2)C(=O)c2ccccc21
CC50 at 24 h [1]: 116 µM | Activity [2]: Non-Toxic | Activity [4]: Non-Toxic | Survival (Plasmodium berghei [5]): 13 days | Activity [6]: Non-Toxic | logP [7]: 2.67 | Activity [9]: Non-Toxic | CC50 (HepG2): 278 µM | hemolysis at 1 h [10]: < 40% | Activity [11]: Non-Toxic | IC50 (Plasmodium falciparum [12]): 0.81 µM | hemolysis at 1 h, up to 1000 µM [13]: > 40% | selectivity ratio [14]: 143 | Activity [16]: Non-Toxic | Activity [17]: Non-Toxic | Activity [19]: Non-Toxic | Activity [20]: Non-Toxic | Activity [23]: Non-Toxic | Activity [24]: Non-Toxic | selectivity ratio [25]: 343 | Activity [26]: Non-Toxic | Activity [27]: Non-Toxic | Activity [30]: Non-Toxic | Activity [32]: Non-Toxic | Activity [33]: Non-Toxic | Activity [35]: Non-Toxic | Activity [36]: Non-Toxic

Cc1ccc(-c2cn(CCNC3=CC(=O)c4ccccc4C3=O)nn2)cc1
CC50 at 24 h [1]: 207 µM | Activity [2]: Non-Toxic | Activity [4]: Non-Toxic | Survival (Plasmodium berghei [5]): 14 days | Activity [6]: Non-Toxic | logP [7]: 3.12 | Activity [9]: Non-Toxic | CC50 (HepG2): 104 µM | hemolysis at 1 h [10]: < 40% | Activity [11]: Non-Toxic | IC50 (Plasmodium falciparum [12]): 15.1 µM | hemolysis at 1 h, up to 1000 µM [13]: > 40% | selectivity ratio [14]: 13.7 | Activity [16]: Non-Toxic | Activity [17]: Non-Toxic | Activity [19]: Non-Toxic | Activity [20]: Non-Toxic | Activity [23]: Non-Toxic | Activity [24]: Non-Toxic | selectivity ratio [25]: 6.88 | Activity [26]: Non-Toxic | Activity [27]: Non-Toxic | mortality at 336 h [28]: 100% | Activity [30]: Non-Toxic | Activity [32]: Non-Toxic | Activity [33]: Non-Toxic | Activity [35]: Non-Toxic | Activity [36]: Non-Toxic
